Assay results published in ChEMBL document CHEMBL3885861, “Open TG-GATES”.

Organism: Rattus norvegicus
Assay: Open TG-GATES - Regimen: Single
Format: toxicity, organism-based, Sprague-Dawley
Design: regimen Single, gender Male, age 6 weeks
Settings: in vivo, iv, route intravenous injection; for K / LDH / Na / PL / RALB / TBIL / TC / TG / TP / gamma-GTP / A/G / ALP / ALT / AST / BUN / CRE / Ca / Cl / DBIL / GLC / IP: tissue Plasma; for APTT / Bas / Eos / Fbg / Hb / Ht / Lym / MCH / MCHC / MCV / Mono / Neu / PT / Plat / RBC / Ret / WBC: tissue Blood; for KIDNEY_L / KIDNEY_R / KIDNEY_TOTAL: tissue Kidney; for LIVER: tissue Liver
[1] = 3 mg/kg, 3 h, dose level Middle
[2] = 3 mg/kg, 6 h, dose level Middle
[3] = 3 mg/kg, 9 h, dose level Middle
[4] = 3 mg/kg, 24 h, dose level Middle

## C[C@@H]1C[C@@H]([C@H](O)CC2CC(=O)NC(=O)C2)C(=O)[C@@H](C)C1 [CYCLOHEXIMIDE]
1 mg/kg, 24 h, dose level Low
  K: 4.4 meq/L
  LDH: 149.2 IU/L
  Na: 139.8 meq/L
  PL: 110.4 mg/dL
  RALB: 2.6 g/dL
  TBIL: 0.028 mg/dL
  TC: 51.4 mg/dL
  TG: 169.6 mg/dL
  TP: 4.6 g/dL
  gamma-GTP: 1.6 IU/L
[1]
  TERMINAL_BW: 221.6 g
  APTT: 22.4 s
  Bas: 0%
  Eos: 0.6%
  Fbg: 296.6 mg/dL
  Hb: 13.7 g/dL
  Ht: 41.1%
  Lym: 73.2%
  MCH: 21.6 pg
  MCHC: 33.4%
  MCV: 64.6 fL
  Mono: 0.8%
  Neu: 24.8%
  PT: 17.4 s
  Plat: 132.2 x10_4/uL
  RBC: 636.8 x10_4/ul
  Ret: 9.2%
  WBC: 217.3 x10_2/uL
  KIDNEY_L: 1 g
  KIDNEY_R: 1 g
  KIDNEY_TOTAL: 2 g
  LIVER: 9.6 g
  A/G: 1.3
  ALP: 1376.2 IU/L
  ALT: 58 IU/L
  AST: 140.8 IU/L
  BUN: 32.6 mg/dL
  CRE: 0.1 mg/dL
  Ca: 9.8 mg/dL
  Cl: 109.4 meq/L
  DBIL: 0.004 mg/dL
  GLC: 170.4 mg/dL
  IP: 9.8 mg/dL
  K: 4.7 meq/L
  LDH: 364.6 IU/L
  Na: 142.2 meq/L
  PL: 80 mg/dL
  RALB: 2.8 g/dL
  TBIL: 0.018 mg/dL
  TC: 59.4 mg/dL
  TG: 52.4 mg/dL
  TP: 5.1 g/dL
  gamma-GTP: 2 IU/L
[2]
  TERMINAL_BW: 221.4 g
  APTT: 25.3 s
  Bas: 0%
  Eos: 0.4%
  Fbg: 276 mg/dL
  Hb: 14.1 g/dL
  Ht: 42.1%
  Lym: 60.4%
  MCH: 21.2 pg
  MCHC: 33.6%
  MCV: 63.1 fL
  Mono: 1%
  Neu: 38%
  PT: 21.1 s
  Plat: 123.7 x10_4/uL
  RBC: 668 x10_4/ul
  Ret: 8.3%
  WBC: 191.1 x10_2/uL
  KIDNEY_L: 1 g
  KIDNEY_R: 1 g
  KIDNEY_TOTAL: 2 g
  LIVER: 8.6 g
  A/G: 1.4
  ALP: 1008.6 IU/L
  ALT: 63 IU/L
  AST: 134.2 IU/L
  BUN: 29.2 mg/dL
  CRE: 0.1 mg/dL
  Ca: 7.2 mg/dL
  Cl: 104.2 meq/L
  DBIL: 0.006 mg/dL
  GLC: 139.6 mg/dL
  IP: 11.6 mg/dL
  K: 4.2 meq/L
  LDH: 232.2 IU/L
  Na: 138.2 meq/L
  PL: 62.8 mg/dL
  RALB: 2.8 g/dL
  TBIL: 0.014 mg/dL
  TC: 39.6 mg/dL
  TG: 66.4 mg/dL
  TP: 4.9 g/dL
  gamma-GTP: 1.8 IU/L
[3]
  TERMINAL_BW: 215.9 g
  APTT: 27.9 s
  Bas: 0%
  Eos: 0.6%
  Fbg: 255.2 mg/dL
  Hb: 13.6 g/dL
  Ht: 41%
  Lym: 56.4%
  MCH: 21.1 pg
  MCHC: 33.1%
  MCV: 63.7 fL
  Mono: 1.2%
  Neu: 41.8%
  PT: 22.1 s
  Plat: 117.3 x10_4/uL
  RBC: 643 x10_4/ul
  Ret: 7.8%
  WBC: 199.4 x10_2/uL
  KIDNEY_L: 1 g
  KIDNEY_R: 1 g
  KIDNEY_TOTAL: 1.9 g
  LIVER: 8.6 g
  A/G: 1.5
  ALP: 1011.2 IU/L
  ALT: 51.4 IU/L
  AST: 111 IU/L
  BUN: 20.8 mg/dL
  CRE: 0.1 mg/dL
  Ca: 8 mg/dL
  Cl: 105.6 meq/L
  DBIL: 0.012 mg/dL
  GLC: 151.6 mg/dL
  IP: 8.9 mg/dL
  K: 3.8 meq/L
  LDH: 189.4 IU/L
  Na: 139.4 meq/L
  PL: 75.8 mg/dL
  RALB: 2.8 g/dL
  TBIL: 0.012 mg/dL
  TC: 47.2 mg/dL
  TG: 70.2 mg/dL
  TP: 4.9 g/dL
  gamma-GTP: 1 IU/L
[4]
  TERMINAL_BW: 220.9 g
  APTT: 30.4 s
  Bas: 0%
  Eos: 0%
  Fbg: 293.6 mg/dL
  Hb: 13.2 g/dL
  Ht: 39.9%
  Lym: 66.4%
  MCH: 20.3 pg
  MCHC: 33%
  MCV: 61.6 fL
  Mono: 1.4%
  Neu: 30.8%
  PT: 18.9 s
  Plat: 112.9 x10_4/uL
  RBC: 647.6 x10_4/ul
  Ret: 5.3%
  WBC: 276.2 x10_2/uL
  KIDNEY_L: 1 g
  KIDNEY_R: 1 g
  KIDNEY_TOTAL: 2 g
  LIVER: 9.6 g
  A/G: 1.3
  ALP: 739.4 IU/L
  ALT: 25.2 IU/L
  AST: 65.8 IU/L
  BUN: 11 mg/dL
  CRE: 0.2 mg/dL
